The values that follow come from patent US9908893B2 (Latvian Institute of Organic Synthesis, priority 2013, dated 2018).

For data set [1], the system named is A7R5 (rat aorta smooth muscle) cells. Kind of data set: Intracellular Ca2+ measurements, Fluo-4 NW Calcium Assay Kit, KCl-induced [Ca2+]i increase. It is filed as cell-based. The note with it: for Ca^2+ antagonist effect compared with Verapamil: relative to Verapamil. The method, then: Changes in intracellular [Ca^2+] concentration were studied using A7R5 (rat aorta smooth muscle) cells and Fluo-4 NW Calcium Assay Kit (“Invitrogen”, Sweden) according to manufacturer's instructions.
Changes in intracellular [Ca^2+]i concentration were studied using Fluo-4 NW Calcium Assay Kit (“Invitrogen”, Sweden) accordingly to manufacturer's instructions. The A7R5 (rat aorta smooth muscle) cells were grown at 37° C. in a humidified atmosphere with 5% CO2/95% air in DMEM medium containing 2 mM glutamine and supplemented with 10% FBS. The cells were seeded into 96 well plate at 10,000 cells/well and incubated for 72 h. The cells were loaded with […] for 45 min. The Fura-4NW loaded cells were pre-incubated in the dark for 15 minutes with tested compounds at concentrations from 0.8 to 100 μM. Then A7R5 cells were pre-treated with 1.5 mM CaCl2 for 5 minutes and KCl (50 mM) was added to A7R5 cells to induce [Ca^2+]i increase. Amlodipine, the well-known calcium channel inhibitor was used as the positive control.

Data set [2] is described as follows: Basal toxicity test, neutral red, alternative LD50 calculated from IC50. Conditions: mouse, LD50, alternative LD50 calculated by formula from IC50 in NIH 3T3 cells. Here is the method: A low therapeutic index of chemotherapy agents is due to affecting not only cancer formation but also normal cells.
9,000 NIH 3T3 cells/well were placed into 96-well plates for 24 h and then exposed to the test compound over a range of eight concentration (1-1000 μg/ml) for 24 h. Upon that, the cells were incubated with the neutral red dye for 4 h and then OD was determined at 540 nm. […] The IC50 values were calculated using the program Graph Pad Prism® 4.0

The mark [3] stands for this setting: A7R5 cells, KCl (50 mM) induced [Ca2+]i increase, compounds 0.8 to 100 μM.
[4] abbreviates: Rattus norvegicus, A7R5, read-out: Ca^2+ A7R5, IC50.

The term LD50 denotes the dose expected to kill half of the subjects tested. For orientation: IC50 means the concentration at which inhibition is half-maximal.

Like-named read-outs stand apart in the source and are kept apart here.

For the compound `CCOC(=O)c1c(-c2cc(OC)c(OC)c(OC)c2)nc2sc(C(=O)c3cc(OC)c(OC)c(OC)c3)c(N)c2c1-c1cc(OC)c(OC)c(OC)c1` [Compound 40, 3-Amino-4,6-bis-(3,4,5-trimethoxyphenyl)-2-(3,4,5-trimethoxybenzoyl)-thieno[2,3-b]pyridine-5-carboxylic acid ethyl ester], the “Ca^2+ A7R5, IC50” value in data set [1] (setting [3]) is recorded as “No effect”. Moreover, the LD50 at 24 h in data set [2] is greater than 2000 mg/kg.
For `CCOC(=O)c1c(C)nc2sc(C(=O)c3ccc(F)cc3)c(N)c2c1-c1cc(OC)c(OC)c(OC)c1` [Compound 22, 3-Amino-2-(4-fluorobenzoyl)-4-(3,4,5-trimethoxyphenyl)-6-methylthieno[2,3-b]-pyridine-5-carboxylic acid ethyl ester], the IC50 in data set [1] (setting [4]) was found to be 20 ± 2 µM. Moreover, the “Ca^2+ antagonist effect compared with Verapamil” value in data set [1] (A7R5 cells) was “more than ten times lower”. In addition, in data set [2], the LD50 at 24 h was greater than 2000 mg/kg.
On to `COC(=O)c1c(C)nc2sc(C(=O)c3ccc(F)cc3)c(N)c2c1-c1cc(OC)c(OC)c(OC)c1` [Compound 8, 3-Amino-2-(4-fluorobenzoyl)-6-methyl-4-(3,4,5-trimethoxyphenyl)thieno[2,3-b]-pyridine-5-carboxylic acid methyl ester], for which the IC50 in data set [1] (setting [4]) is 3 ± 0.8 µM. For the same compound, the LD50 at 24 h in data set [2] was greater than 2000 mg/kg.
Turning to `COc1ccc(C(=O)c2sc3nc(C)c(C(C)=O)c(-c4cc(OC)c(OC)c(OC)c4)c3c2N)c(OC)c1` [Compound 4, 5-Acetyl-3-amino-2-(2,4-dimethoxybenzoyl)-6-methyl-4-(3,4,5-trimethoxyphenyl)-thieno[2,3-b]pyridine], the “Ca^2+ A7R5, IC50” value in data set [1] (setting [3]) was “No effect”. Further, the 50% lethal dose (LD50) at 24 h in data set [2] is 1070 mg/kg.
With `COCCOC(=O)c1c(C)nc2sc(C(=O)c3ccc(OC)cc3OC)c(N)c2c1-c1cc(OC)c(OC)c(OC)c1` [Compound 35, 3-Amino-2-(2,4-dimethoxybenzoyl)-6-methyl-4-(3,4,5-trimethoxyphenyl)-thieno[2,3-b]pyridine-5-carboxylic acid 2-methoxyethyl ester], the IC50 in data set [1] (setting [4]) was found to be 9 ± 1 µM. For the same compound, in data set [1] (A7R5 cells), the “Ca^2+ antagonist effect compared with Verapamil” value is listed as “more than ten times lower”. Moreover, the LD50 at 24 h in data set [2] was greater than 2000 mg/kg.
With `CCOC(=O)c1c(C)nc2sc(C(=O)c3ccc(Cl)cc3)c(N)c2c1-c1cc(OC)c(OC)c(OC)c1` [Compound 23, 3-Amino-2-(4-chlorobenzoyl)-4-(3,4,5-trimethoxyphenyl)-6-methylthieno[2,3-b]-pyridine-5-carboxylic acid ethyl ester], the IC50 in data set [1] (setting [4]) was determined as 4 ± 0.4 µM. Also, the LD50 at 24 h in data set [2] is 2700 mg/kg.
Regarding `CCOC(=O)c1c(C)nc2sc(C(=O)c3ccc(OC)cc3)c(N)c2c1-c1ccc(O)c(OC)c1` [Compound 16, 3-Amino-4-(4-hydroxy-3-methoxyphenyl)-2-(4-methoxybenzoyl)-6-methyl-thieno[2,3-b]pyridine-5-carboxylic acid ethyl ester], in data set [1] (setting [4]), the IC50 came to 3.7 ± 0.4 µM. In addition, in data set [1] (A7R5 cells), the “Ca^2+ antagonist effect compared with Verapamil” value is recorded as “more than ten times lower”. In data set [2], the LD50 at 24 h is greater than 2000 mg/kg.
With `CCOC(=O)c1c(-c2cc(OC)c(OC)c(OC)c2)nc2sc(C(=O)c3ccc(OC)cc3)c(N)c2c1-c1cc(OC)c(OC)c(OC)c1` [Compound 39, 3-Amino-4,6-bis-(3,4,5-trimethoxyphenyl)-2-(4-methoxybenzoyl)thieno[2,3-b]-pyridine-5-carboxylic acid ethyl ester], in data set [1] (setting [3]), the “Ca^2+ A7R5, IC50” value is on record as “No effect”. The LD50 at 24 h in data set [2] is greater than 2000 mg/kg.
As for `CCCOCCOC(=O)c1c(C)nc2sc(C(=O)c3ccc(OC)cc3OC)c(N)c2c1-c1cc(OC)c(OC)c(OC)c1` [Compound 37, 3-Amino-2-(2,4-dimethoxybenzoyl)-6-methyl-4-(3,4,5-trimethoxyphenyl)-thieno[2,3-b]pyridine-5-carboxylic acid 2-propoxyethyl ester], in data set [1] (A7R5 cells, KCl (50 mM) induced [Ca2+]i increase, compounds 0.8 to 100 μM, read-out: Ca^2+ A7R5, IC50), the IC50 was greater than 100 µM.
As for `COc1ccc(C(=O)c2sc3nc(C)cc(C)c3c2N)c(OC)c1` [Compound 45, 3-Amino-4,6-dimethyl-2-(2,4-dimetoxybenzoyl)thieno[2,3-b]pyridine], in data set [2], the median lethal dose (LD50) at 24 h is 959 mg/kg.
